Data: US10144715B2, “Piperazine derivatives as liver X receptor modulators” (priority 2014, dated 2018)
Read-outs that look alike come from different tables or passages of the source.

Experiments:
[1] = biological target: T1, LXR α LBD protein (Homo sapiens (Human), UniProt Q13133); experiment: Human LXRα coactivator recruitment FRET assay, agonist mode; type: biochemical
In short: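 Time-resolved FRET (delay 100 µs, window 200 µs) after 2 h rt incubation of compound with 10 nM (2×) GST-tagged LXRα or LXRβ LBD plus 200 nM fluorescein-SRC2-3 and 20 nM Tb-anti-GST (4×). Percent control vs concentration fit to four-parameter model; EC50 at inflection.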

[2] = biological target: T1, LXR α LBD protein; experiment: LXR α radioligand binding assay (SPA, competition with [3H]TO901317); conditions: read-out: LXRα Binding Ki
[3] = biological target: Gal4 DNA binding domain fused to the LBD of LXRβ in HEK293 cells (Homo sapiens (Human), UniProt P55055); experiment: cell-based
[4] = biological target: T2, LXR β LBD protein (Homo sapiens (Human), UniProt P55055); experiment: biochemical; type: binding; conditions: read-out: LXRβ Binding Ki
Target sequence in this assay (P55055 222-460 limits assumed): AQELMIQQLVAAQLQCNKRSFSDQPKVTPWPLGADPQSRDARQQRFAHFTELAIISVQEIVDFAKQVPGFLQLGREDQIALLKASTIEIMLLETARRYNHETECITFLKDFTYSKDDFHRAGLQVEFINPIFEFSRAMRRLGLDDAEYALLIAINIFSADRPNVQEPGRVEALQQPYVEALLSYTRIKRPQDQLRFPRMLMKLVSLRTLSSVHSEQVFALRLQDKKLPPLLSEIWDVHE

[5] = biological target: Gal4 DNA binding domain fused to the LBD of LXRα in HEK293 cells (Homo sapiens (Human), UniProt Q13133); experiment: LXR luciferase transcriptional reporter gene assay, agonist mode, LXRα; type: cell-based; conditions: for EC50: read-out: Cell LXRα EC50
[6] = biological target: T2, LXR β LBD protein; experiment: biochemical; type: biochemical; conditions: for EC50: read-out: FRET LXRβ EC50
Method: Two μL of the DMSO solutions were transferred to the plate and 38 μL of 10 nM LXRα-LBD or LXRβ-LBD (2×) were added immediately to the wells. The plate was shaken for 5 min at rt on an orbital micro shaker (DPC MicroMix® 5), after which 40 μL of 200 nM fluorescein-SRC2-3 peptide and 20 nM Terbium-anti-GST-antibody (Cat# PV3550, Life Technologies, Grand Island, N.Y.) solution (4×) were added to all. The plate was sealed and shaken for 2 min at rt, and incubated at rt for 2 h without agitation. […] The delay and window times were set at 100 and 200 microseconds, respectively. […] The percent control vs. compound concentration data were fit into a four-parameter model, and EC50 values were calculated from the fit as the concentrations corresponding to the inflection points on the concentration-response curves.
Target sequence in this assay (P55055 222-460): as the sequence (P55055 222-460 limits assumed) above

[7] = agonist mode, read-out: Cell LXRβ EC50
[8] = Biological Test Example 3, agonist mode
[9] = Biological Test Example 2, agonist mode

Chain of Gal4 DNA binding domain fused to the LBD of LXRα in HEK293 cells (Q13133 209-447): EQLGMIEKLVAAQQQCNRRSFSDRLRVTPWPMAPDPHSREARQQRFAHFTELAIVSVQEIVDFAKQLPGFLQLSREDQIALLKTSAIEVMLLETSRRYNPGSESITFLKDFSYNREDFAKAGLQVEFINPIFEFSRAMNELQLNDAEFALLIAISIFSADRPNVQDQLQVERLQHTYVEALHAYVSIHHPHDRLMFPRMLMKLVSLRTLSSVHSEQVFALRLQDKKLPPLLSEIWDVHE
T1 sequence (Q13133 209-447): as above
Chain of Gal4 DNA binding domain fused to the LBD of LXRβ in HEK293 cells (P55055 222-460 limits assumed): as the sequence (P55055 222-460 limits assumed) above

SMILES	EC50 ([1]; agonist mode) [nM]	FRET LXRα efficacy ([1]; agonist mode) [%]	Ki [2] [nM]	Cell LXRβ efficacy ([3]; agonist mode)	Ki [4] [nM]	Cell LXRα efficacy [5]	EC50 [5] [nM]	FRET LXRβ efficacy ([6]; agonist mode)	EC50 ([6]; agonist mode) [nM]	Cell LXRβ efficacy [3]	EC50 [3] [nM]	FRET LXRβ efficacy [6]	EC50 [6] [nM]	also measured
CS(=O)(=O)c1cc(N2CCN(C[C@H]3CC[C@H](C(F)(F)F)CC3)[C@@H](c3ccccc3)C2)ccc1C(N)=O (single isomer, unassigned) [17-37]	605	53	3210	24%	1010	16011 (50) %	16000	85%	355	–	–	–	–	EC50 [3, 7]: 3530 nM
CS(=O)(=O)c1cc(N2CCN(C[C@H]3CC[C@@H](C(F)(F)F)CC3)[C@H](c3ccccc3)C2)ccc1C(N)=O (single isomer, unassigned) [17-38]	3370	34	3130	18%	753	4828 (13) %	4830	71%	561	–	–	–	–	EC50 [3, 7]: 1790 nM
CS(=O)(=O)c1cccc(N2CCN(Cc3ccc(C(F)(F)F)cc3)[C@@H](c3ccccc3)C2)c1 (single isomer, unassigned) [46-15]	1520	28	–	–	158	2993 (28) %	–	–	–	720 (26) %	720	418 (45) %	418	EC50 ([5]; agonist mode): 2990 nM
CS(=O)(=O)c1cccc(N2CCN(Cc3ccc(OC(F)(F)F)cc3)[C@@H](c3ccccc3)C2)c1 (single isomer, unassigned) [46-23]	7040	47	1040	–	112	4367 (45) %	4370	–	–	1432 (29) %	1430	710 (57) %	710	–
Cc1ccccc1[C@H]1CN(c2cccc(S(C)(=O)=O)c2)CCN1Cc1ccc(C(F)(F)F)nc1 (single isomer, unassigned) [46-46]	6690	30	> 3330	1989 (4) %	1980	–	–	1214 (51) %	–	–	1990	–	1210	EC50 ([5]; agonist mode): > 20000 nM
CS(=O)(=O)c1cccc(N2CCN(Cc3ccc(C(F)(F)F)nc3)[C@@H](c3ccccc3Cl)C2)c1 (single isomer, unassigned) [46-57]	499	41	188	–	61	1244 (42) %	1240	–	–	383 (38) %	383	55 (56) %	55	–
CS(=O)(=O)c1cccc(N2CCN(C[C@H]3CCN(CC(F)(F)F)C3)[C@@H](c3ccccc3)C2)c1 (single isomer, unassigned) [48-63]	–	–	> 3330	–	–	–	–	–	–	–	> 20000	–	1550	EC50 [1, 8]: 11700 nM; FRET LXRα efficacy [1, 8]: 14%; Ki ([4]; Biological Test Example 1): > 2500 nM; EC50 [5, 9]: > 20000 nM; FRET LXRβ efficacy [6, 8]: 1553 (30) %
CS(=O)(=O)c1cc(N2CCN(C[C@H]3CC[C@H](C(F)(F)F)CC3)[C@@H](c3ccccc3)C2)ccc1C#N (single isomer, unassigned) [50-4]	–	–	2720	–	–	3065 (19) %	3060	–	–	–	–	–	–	EC50 [1, 8]: 9560 nM; FRET LXRα efficacy [1, 8]: 69%; Cell LXRβ efficacy [3, 9]: 23%; EC50 ([3]; Biological Test Example 2, agonist mode, read-out: Cell LXRβ EC50): 1280 nM; Ki ([4]; Biological Test Example 1): 516 nM; FRET LXRβ efficacy [6, 8]: 82%; EC50 [6, 8]: 1630 nM
CC(C)[C@@H]1CN(c2ccc(F)c(S(C)(=O)=O)c2)CCN1C(=O)OC(C)(C)C [2-1, tert-butyl (R)-4-(4-fluoro-3-(methylsulfonyl)phenyl)-2-isopropylpiperazine-1-carboxylate]	901	48	–	684 (36) %	209	5252 (61) %	5250	74%	56	–	684	–	–	–
